From patent publication US12559863B2, “Macrocyclic modulators of disease associated protein misfolding and aggregation” (RESQ BIOTECH, priority 2017, dated 2026)
Where a SMILES comes first, the peptide text is derived from it.

Tests used:
[1] = tested on: primary mouse hippocampal neurons; experiment: MTT cell viability in primary hippocampal neurons; type: cell-based; conditions: for neurotoxicity of Aβ40: 1 μM Aβ40, 1:1 and 2:1 peptides:Aβ; for neurotoxicity of Aβ40 / neurotoxicity of Aβ42: 24 h, MTT; for neurotoxicity of Aβ42: 1 μM Aβ42, 1:1 and 2:1 peptides:Aβ; for growth-promoting effects or cytotoxicity of peptide on its own: peptide alone, no Aβ
Description: The media/agents for primary neuronal cell cultures were purchased from Thermo Fisher Scientific (USA). Hippocampal neuronal cultures were obtained from postnatal day 1 female pups of C57BL/6 mice. Briefly, after being dissected, the hippocampus was incubated with 0.25% trypsin for 15 min at 37° C. The hippocampi were then rinsed in 10 mL of Hibernate containing 10% (v/v) heat-inactivated fetal bovine serum (FBS). Cultures were maintained in Neurobasal-A medium containing 2% B-27 supplement, 0.5 mM Gluta-MAX and 1% penicillin/streptomycin at 37° C. and 5% CO2. Half of the medium was replaced twice a week. Neuronal hippocampal cells were plated at a density of approximately 2×10^4 per well in 96-well plates and 5×10^5 per well in 24-well plates for MTT and induced cell death assays, respectively. After seven days of incubation in culture well plates, the primary hippocampal neurons were used for the cell viability measurements.
(§1) Solutions of synthetic Aβ40 or Aβ42 (10 μM) in PBS, preincubated at 37° C. (3 d for Aβ40 solutions and 1 d for Aβ42 solutions) in the presence or absence of synthetic cyclic peptides (1:1 and 2:1 ratio of peptides:Aβ), were diluted with fresh medium and transferred into wells at a 1 μM final Aβ concentration. Cell viability was determined using the MTT assay. MTT (3-[4,5-dimethylthiazol-2-yl]-2,5-diphenyl tetrazolium bromide) was purchased from Applichem (Germany). After 24 h of exposure to Aβ solutions, 100 μL of a 0.5 mg/mL stock solution of MTT in Neurobasal-A was added to each well of primary hippocampal neurons followed by a 3 h incubation at 37° C., while 100 μL of a 1 mg/mL stock solution of MTT in DMEM complete medium was added to each well of U87MG cells followed by a 4 h incubation at 37° C. The medium was then removed and the cells were diluted in DMSO. The relative formazan concentration was measured by determination of the absorbance at 540 nm using a plate reader (Tecan, Austria). Results were expressed as the percentage of MTT reduction, assuming that the absorbance of control (untreated) cells was 100%, and represent the mean of three independent experiments with six replicate wells for each condition. Induced cell death was also qualitatively examined by phase-contrast microscopy (Carl Zeiss, Axiovert 25 CFL, Germany) using the above solutions. In each run, the effect of solutions of plain synthetic peptides and plain Aβ40 or Aβ42 was independently checked to serve as internal control.

[2] = tested on: C. elegans strain CL2331 (Aβ3-42-GFP); experiment: Confocal microscopy of Aβ3-42-GFP deposits in C. elegans CL2331; type: in vivo, Caenorhabditis elegans; conditions: 10 μM AβC5-34 or 5 μM AβC5-116
Description: We followed standard procedures for C. elegans strains maintenance at 16° C. The following strains were used: CL2179: dvIs179 [myo-3p::GFP::3′UTR(long)+rol-6(su1006)] (available on the world wide web at: cgc.cbs.umn.edu/strain.php?id=26134); CL2331: dvIs37 [myo-3p::GFP::Aβ(3-42)+rol-6(su1006)] (available on the world wide web at: cgc.cbs.umn.edu/strain.php?id=26135); CL4176: smg-1(cc546) I; dvIs27 [myo-3::Aβ(1-42)-let 3′UTR(pAF29); pRF4 (rol-6(su1006)] (available on the world wide web at: cgc.cbs.umn.edu/strain.php?id=7663).
For Aβ3-42 deposit measurements, synchronized (at the L4 larval stage) CL2331 and CL2179 (control strain) animals exposed to solvent (0.26% DMSO), 10 μM AβC5-34 or 5 μM AβC5-116 and grown at 20° C. (to induce aggregation) until day 2 of adulthood were collected. Animals were mounted onto 2% agarose pads on glass slides, anesthetized with 10 mM levamisole and observed at RT using a Leica TCS SPE confocal laser scanning microscope (Leica Lasertechnik GmbH, Germany). The LAS AF software was used for image acquisition. At least twenty animals/condition in three independent experiments were processed. Images of whole worms and focused images in the posterior area of nematodes were acquired with 10×0.45 and 20×0.70 numerical aperture, respectively.

[3] = tested on: C. elegans strain CL4176 (human Aβ42); experiment: Dot blot analysis of total and oligomeric Aβ in C. elegans CL4176; type: in vivo, Caenorhabditis elegans; conditions: for accumulation level of total Aβ, CL4176: antibody 6E10; for accumulation level of oligomeric Aβ, CL4176: antibody AB9234
Description: CL4176 animals were allowed to lay eggs for 3 h on NGM plates containing either synthetic peptides or 0.26% DMSO. Paralysis was induced upon temperature up-shift and the progeny were exposed to either pure peptides or 0.26% DMSO until 50% of the control population was paralyzed. The animals were then collected and boiled in non-reducing Laemmli buffer. For dot blot analysis, 1-5 μg of protein lysates were spotted onto 0.2 μm nitrocellulose membranes (Bio-Rad, USA) after soaking into TBS pre-heated at 80° C. Immunoblotting was performed using the anti-Aβ antibody 6E10 (recognizes total Aβ) and the anti-amyloid protein, oligomer-specific antibody AB9234 (Merck Millipore, Germany). Actin was used as a loading control. Blots were developed with chemiluminescence by using the Clarity™ Western ECL substrate (Bio-Rad, USA). Quantification of the ratio of each detected protein to actin using the anti-actin antibody sc-1615 (Santa Cruz, Germany), and normalization to control appears next to each representative blot.

[4] = tested on: Aβ-exposed neuronal cells; experiment: Phase-contrast microscopy of Aβ-exposed neuronal cells; type: cell-based, mouse; conditions: pre-aggregated Aβ
Description: as §1, with “In each run, the effect of solutions of plain synthetic peptides and plain Aβ40 or Aβ42 was independently checked to serve as internal control.” left out

[5] = tested on: glioblastoma cell line U87MG; type: cell-based, human; conditions: for Aβ-induced toxicity in U87MG: MTT
Description: The utilized U87MG cells (human glioblastoma-astrocytoma, epithelial-like cell line) were kind a gift from Dr. Maria Paravatou-Petsotas, Radiobiology Laboratory, Institute of Nuclear & Radiological Sciences & Technology, Energy & Safety, NCSR “Demokritos”. The utilized media/agents for U87MG cell cultures were obtained from Biochrom AG (Germany) and PAA Laboratories (USA). U87MG cells were grown in Dulbecco's modified Eagle medium (DMEM), supplemented with 10% fetal bovine serum (FBS), 2.5 mM L-glutamine, 1% penicillin/streptomycin at 37° C. and 5% CO2. For MTT cytotoxicity studies, cells were plated at a density of 2×10^4 cells per well in 96-well plates and incubated at 37° C. for 24 h to allow cells to attach. The medium was subsequently removed and cells were rendered quiescent by incubation in serum-free medium for 24 h. For cell viability measurements cells were subsequently treated with the indicated concentrations of Aβ in the presence or absence of synthetic peptides, as described in Materials and Methods.
as §1

Row | Structure (SMILES) | neurotoxicity of Aβ40 [1] | neurotoxicity of Aβ42 [1] | growth-promoting effects or cytotoxicity of peptide on its own [1] | Aβ deposits, CL2331 [2] | accumulation level of total Aβ, CL4176 [3] | accumulation level of oligomeric Aβ, CL4176 [3] | morphology of Aβ-exposed neuronal cells [4] | growth-promoting effects or cytotoxicity of peptide on its own [5] | Aβ-induced toxicity in U87MG [5]
1 | C[C@@H]1NC(=O)[C@H](CO)NC(=O)[C@H]([C@@H](C)O)NC(=O)[C@@H]2CCCN2C(=O)[C@H](CO)NC1=O [AβC5-34, cyclo-SASPT] (cyclo(ASPTS)) | markedly inhibit the neurotoxicity | markedly inhibit the neurotoxicity | did not exhibit general growth-promoting effects or considerable cytotoxicity | significant reduction of Aβ deposits | significant reduction of both Aβ species | significant reduction of both Aβ species | marked recovery of the Aβ-induced alterations | did not exhibit general growth-promoting effects or considerable cytotoxicity | toxicity-suppressing effects
2 | C[C@@H]1NC(=O)[C@H]([C@@H](C)O)NC(=O)[C@H](CCCNC(=N)N)NC(=O)[C@H](CC(=O)O)NC(=O)[C@H](Cc2ccccc2)NC1=O [AβC5-116, cyclo-TAFDR] (cyclo(AFDRT)) | markedly inhibit the neurotoxicity | markedly inhibit the neurotoxicity | did not exhibit general growth-promoting effects or considerable cytotoxicity | significant reduction of Aβ deposits | significant reduction of both Aβ species | significant reduction of both Aβ species | marked recovery of the Aβ-induced alterations | did not exhibit general growth-promoting effects or considerable cytotoxicity | toxicity-suppressing effects
